In ChEMBL document CHEMBL5113449, “Evaluation of aminopyrrolidine amide to improve chloride transport in CFTR-defective cells” (Bioorg Med Chem Lett, 2022):
The source made the active and inactive calls. No cut-off for these calls is given here.

Assays:
CFBE41o- [1] = experiment: Upregulation of BiP protein expression in human CFBE41o- cells expressing CFTR P.Phe508del mutant by Western blot analysis; assay type: functional, cell-based
CFBE41o- [2] = experiment: Upregulation of ATF6 protein expression in human CFBE41o- cells expressing CFTR P.Phe508del mutant by Western blot analysis; assay type: functional, cell-based
CFBE41o- [3] = experiment: Induction of UPR in human CFBE41o- cells expressing CFTR P.Phe508del mutant assessed as upregulation of IRE1 mRNA expression by RT-PCR analysis; assay type: functional, cell-based
CFBE41o- [4] = experiment: Upregulation of cleaved form of ATF6 protein expression in human CFBE41o- cells expressing CFTR P.Phe508del mutant by Western blot analysis; assay type: functional, cell-based
[5] = Restoration of CFTR chloride channel activity in human CFBE41o- cells expressing CFTR P.Phe508del mutant assessed as increase in channel function by measuring Cl- current at 10 uM at -80 mV holding potential incubated for 48 hrs by whole cell patch clamp assay (reference value: 32.98 +/- 14.71 pA/pF); assay type: functional
[6] = Cytotoxicity against human CFBE41o- cells expressing CFTR P.Phe508del mutant at 10 uM incubated for 48 hrs by MTT assay; assay type: toxicity, cell-based
BHK = experiment: Restoration of CFTR chloride channel activity in […] BHK cells expressing 3HA-epitope tagged CFTR P.Phe508del mutant assessed as increase in exportation of mutant CFTR to membrane by measuring mature CFTR by immunoblot analysis; assay type: functional, cell-based
CFBE41o- [7] = experiment: Induction of UPR in human CFBE41o- cells expressing CFTR P.Phe508del mutant assessed as upregulation of XBP1 mRNA expression by RT-PCR analysis; assay type: functional, cell-based
CFBE41o- [8] = experiment: Restoration of CFTR chloride channel activity in human CFBE41o- cells expressing CFTR P.Phe508del mutant assessed as increase in transcription of CFTR P.Phe508del mutant mRNA expression by RT-qPCR analysis; assay type: functional, cell-based
CFBE41o- [9] = experiment: Induction of UPR in human CFBE41o- cells expressing CFTR P.Phe508del mutant assessed as upregulation of PERK mRNA expression by RT-PCR analysis; assay type: functional, cell-based

**Q.** For `CCN(CC)Cc1ccc(C(=O)N(CCc2ccccc2OC)[C@@H]2CCNC2)cc1`, which Activity (CFBE41o- [1]) is on record?
**A.** The Activity was “Active”.

**Q.** What about the Activity (CFBE41o- [2]) of the same compound?
**A.** The Activity was “Active”.

**Q.** And the Activity (CFBE41o- [3])?
**A.** The Activity was “Active”.

**Q.** And the Activity (CFBE41o- [4])?
**A.** Its Activity is “Active”.

**Q.** And the Activity [5]?
**A.** The Activity was 82.67 pA/pF.

**Q.** What about the Activity [6] of the same compound?
**A.** Its Activity is “Non-Toxic”.

**Q.** What about the Activity (BHK) of the same compound?
**A.** The Activity was “Active”.

**Q.** And the Activity (CFBE41o- [7])?
**A.** Its Activity is “Active”.

**Q.** What about the Activity (CFBE41o- [8]) of the same compound?
**A.** The Activity was “Active”.

**Q.** What about the Activity (CFBE41o- [9]) of the same compound?
**A.** The Activity was “Active”.
